According to patent US20240082221A1, “COMPOSITIONS AND METHODS FOR THE IDENTIFICATION OF COMPOUNDS THAT PROTECT AGAINST LIPOFUSCIN CYTOTOXICITY” (priority 2021, published 2024):

Tested on: LLO-induced atypical necroptosis
Assay: LLO-induced atypical necroptosis, protection assay
Format: cell-based

SMILES | protection against LLO-induced atypical necroptosis
N=C1S/C(=C\c2cn[nH]c2-c2ccc(F)cc2)C(=O)N1c1nccs1 [Nec7, Necrostatin 7] | preventable
[O-][n+]1cccc(/C(Cl)=N/OC[C@H](O)CN2CCCCC2)c1 [arimoclomol] | preventable
